# Non-standard residues stand in square brackets, D forms with d. Residues, ends and D or L forms follow the SMILES beside them.
# Legend:
# [1] = tested on: MiaPaCa pancreatic carcinoma xenograft; experiment: MiaPaCa pancreatic carcinoma xenograft model, daily IP; assay type: in vivo, mouse; details: for Tumor response: 30 mg/kg IP daily for 28 days
# Protocol: (§1) Efficacy of GO-203-2, the reduced form of GO-203-2c that is responsible for binding to and inhibiting oligomerization of MUC1-CD was evaluated in several different human tumor xenograft models. For these studies BALB/c nu/nu mice (6-7 weeks old; Charles River Laboratories, Wilmington, Mass.) were injected with 10 million COLO-205 colon carcinoma, MiaPaCa pancreatic carcinoma or SKOV3 ovarian carcinoma cells in the right thigh. When tumors reached a predetermined size (80-125 mm^3), mice were randomized into groups of 8 animals and treatment was initiated, which consisted of daily IP injection of GO-203-2 (30 mg/kg), control peptide CP-2 (30 mg/kg) or PBS vehicle control for 28 days. Mice with tumors in excess of ˜2 g or with ulcerated tumors were euthanized, as were those found in obvious distress or in a moribund condition. Mice without palpable tumors were maintained until 90 to 100 days after treatment initiation to confirm lack of re-growth. In addition, animals were weighed periodically during the treatment period and examined for clinical signs of toxicity.
# [2] = tested on: SKOV3 ovarian carcinoma xenograft; experiment: SKOV3 ovarian carcinoma xenograft model, daily IP; assay type: in vivo, mouse; details: for Tumor response: 30 mg/kg IP daily for 28 days
# Protocol: as §1
# [3] = tested on: COLO-205 colon carcinoma xenograft; experiment: COLO-205 colon carcinoma xenograft model, daily IP; assay type: in vivo, mouse; details: for Tumor response: 30 mg/kg IP daily for 28 days
# Protocol: as §1
# [4] = Clinical signs of toxicity in xenograft-bearing mice; assay type: in vivo, mouse; details: 30 mg/kg IP daily for 28 days
# Protocol: as §1
# adrenergic α1B receptor = adrenergic α1B receptor (Homo sapiens, UniProt P35368); experiment: biochemical
# adrenergic α1A receptor = adrenergic α1A receptor (Homo sapiens, UniProt P35348); experiment: biochemical
# [5] = tested on: human carcinoma cell lines
# Protocol: A series of in vitro and in vivo primary pharmacodynamic studies was conducted to assess efficacy and mechanism of action of GO-203-2c in human tumor cells.
# GO-203-2 and GO-203-2c were evaluated for ability to inhibit proliferation of murine and human carcinoma cell lines in vitro. Test compound (5 μM final concentration) was added to tumor cell cultures daily for 5 to 6 days, and cell viability was determined by trypan blue dye exclusion.
# H1975 Lung cancer cells = experiment: Inhibition of cell proliferation, trypan blue exclusion (Table 2); assay type: cell-based, human; details: 5 μM peptide every day, 6-day treatment
# Protocol: (§2) Cells (ZR-75-1 breast carcinoma or H-1975 non-small cell lung carcinoma) were plated separately in 24-well plates for 24 hours prior to treatment with different peptides. The cells were then treated with 5 μM (final concentration) of different peptides every day for 4-6 days. On the day of termination, cells were washed two times with PBS and trypsinized with 0.3 ml of Trypsin/EDTA. Cell growth media was used to stop the trypsin reaction. Following washing, the cells were centrifuged and the cell pellets were re-suspended in PBS for counting in hemacytometer.
# (§3) The trypan blue dye exclusion method was used to determine the number of viable cells present in a cell suspension. Cell suspension was mixed as 1:1 with the trypan blue dye and then visually examined in a hemacytometer. A viable cell will have a clear cytoplasm whereas a non-viable/dead cell will be stained with trypan blue dye. By doing this trypan blue exclusion method, viable cell numbers were counted and percent inhibition of proliferation was then calculated comparing with untreated controls.
# His-tagged MUC1-CD [6] = target: T1, His-tagged MUC1-CD (Homo sapiens, UniProt P15941); experiment: Oligomerization of purified His-tagged MUC1-CD proteins in a cell-free system; assay type: biochemical
# T1 construct: contains a 72-amino acid cytoplasmic domain (MUC1-CD)
# From the text: This finding is not surprising based on a requirement for the cysteine residues in the GO-203-2 binding domain (CQCRRKN) to be available for binding with cysteine residues on the corresponding binding domain of the MUC1-CD protein.
# MUC1-CD = MUC1-CD oligomerization in transfected HEK 293T cells, species comparison; assay type: cell-based; details: MUC1-CD from rat, dog and human compared
# Protocol: (§4) Studies were also conducted to confirm pharmacological relevance of the rodent and nonrodent species chosen for toxicology studies, namely the rat and dog, respectively. MUC1-CD amino acid sequence was determined to be greater than 80% identical between rat, dog and human proteins, and similar expression of MUC1 was found in stomach, intestinal and lung epithelium from the different species using immunohistochemical staining. […] The results of these studies indicate that potential MUC1-CD targets in the rat, dog and human are similar with respect to sequence, tissue expression and responsiveness to inhibition of oligomerization by GO-203-2c, and confirm pharmacological relevance of the species chosen for nonclinical safety assessment of GO-203-2c.
# His-tagged MUC1-CD [7] = experiment: Cell-free oligomerization of purified His-tagged MUC1-CD, species comparison; assay type: biochemical; details: MUC1-CD from rat, dog and human compared
# Protocol: as §4
# muscarinic M2 receptor [8] = target: T2, muscarinic M2 receptor (Homo sapiens, UniProt P08172); experiment: biochemical
# [9] = target: T3, norepinephrine transporter (Homo sapiens, UniProt P23975); experiment: biochemical
# [10] = tested on: ZR-75-1 Breast cancer cells; experiment: Inhibition of cell proliferation, trypan blue exclusion (Table 1); assay type: cell-based, human; details: 5 μM peptide every day, 6-day treatment
# Protocol: as §2, §3
# [11] = target: nicotinic acetylcholine α1 (bungarotoxin) receptor (Homo sapiens, UniProt P02708+P07510+Q07001); experiment: biochemical
# [12] = target: T3, norepinephrine transporter; details: at a concentration of 10 μM
# [13] = tested on: ZR-75-1 human breast carcinoma xenograft; experiment: ZR-75-1 human breast carcinoma xenograft model, daily dosing for 21 days; assay type: in vivo, mouse; details: 4 mg/kg IV daily for 21 days, nu/nu mice
# Protocol: Efficacy of GO-203-2c was evaluated in a ZR-75-1 human breast carcinoma xenograft model. Female nu/nu mice (20-30 g; Charles River Laboratories, Wilmington, Mass.) were injected in the thigh with 5 million ZR-75-1 cells in Matrigel suspension. Mice also received subcutaneous 17-β-estradiol pellets. When tumors reached 100-200 mm^3 in size (approximately 12-15 days after implantation), mice were split into 4 groups of 5 mice and administered the following treatments daily for 21 days: phosphate-buffered saline (PBS) IP, 1 mg/kg GO-203-2c IV, 4 mg/kg GO-203-2c IV or 4 mg/kg control peptide CP-3 IV. Each animal was sacrificed when the tumor reached the predetermined endpoint size (˜2500 mm^3) or when the animals remained tumor-free for 180 days after implantation of the tumor cells.
# muscarinic M2 receptor [14] = target: T2, muscarinic M2 receptor; details: at a concentration of 10 μM
# [15] = up to 90 to 100 days post treatment initiation
# T3 sequence (P23975 whole entry, species assumed): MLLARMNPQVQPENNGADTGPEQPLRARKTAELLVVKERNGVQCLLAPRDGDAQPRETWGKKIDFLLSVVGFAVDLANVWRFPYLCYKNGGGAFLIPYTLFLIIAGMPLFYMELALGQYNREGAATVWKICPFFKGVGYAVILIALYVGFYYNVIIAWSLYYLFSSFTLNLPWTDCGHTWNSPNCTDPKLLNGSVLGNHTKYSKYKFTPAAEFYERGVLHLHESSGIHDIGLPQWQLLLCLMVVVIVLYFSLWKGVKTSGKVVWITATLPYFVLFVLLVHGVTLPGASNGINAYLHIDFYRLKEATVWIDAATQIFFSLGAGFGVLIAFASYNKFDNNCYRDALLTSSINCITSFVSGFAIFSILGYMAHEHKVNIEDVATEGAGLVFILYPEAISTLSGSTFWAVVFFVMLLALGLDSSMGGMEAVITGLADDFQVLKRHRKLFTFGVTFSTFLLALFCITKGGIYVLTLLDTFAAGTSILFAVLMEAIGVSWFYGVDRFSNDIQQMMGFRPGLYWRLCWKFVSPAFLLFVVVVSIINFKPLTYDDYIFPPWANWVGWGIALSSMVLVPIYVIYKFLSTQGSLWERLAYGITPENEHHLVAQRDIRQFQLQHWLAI
# T2 sequence (P08172 whole entry): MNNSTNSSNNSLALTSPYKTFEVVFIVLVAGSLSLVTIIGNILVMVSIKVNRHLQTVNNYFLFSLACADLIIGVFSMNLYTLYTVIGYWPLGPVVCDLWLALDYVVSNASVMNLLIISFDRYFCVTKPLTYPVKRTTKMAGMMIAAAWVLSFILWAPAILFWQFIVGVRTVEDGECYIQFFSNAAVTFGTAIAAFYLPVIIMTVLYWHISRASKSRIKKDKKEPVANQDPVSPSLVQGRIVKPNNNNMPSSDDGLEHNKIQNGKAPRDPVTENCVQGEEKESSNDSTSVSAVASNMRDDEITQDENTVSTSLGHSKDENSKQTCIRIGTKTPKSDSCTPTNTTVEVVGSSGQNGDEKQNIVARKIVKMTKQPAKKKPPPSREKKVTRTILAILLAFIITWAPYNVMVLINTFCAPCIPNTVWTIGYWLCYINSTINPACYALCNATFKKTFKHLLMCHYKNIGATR
# T1 sequence (P15941 1182-1255 limits assumed): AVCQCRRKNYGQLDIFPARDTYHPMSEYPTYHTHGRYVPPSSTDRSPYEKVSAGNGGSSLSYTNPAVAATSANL
# Sequence of adrenergic α1B receptor (P35368 whole entry): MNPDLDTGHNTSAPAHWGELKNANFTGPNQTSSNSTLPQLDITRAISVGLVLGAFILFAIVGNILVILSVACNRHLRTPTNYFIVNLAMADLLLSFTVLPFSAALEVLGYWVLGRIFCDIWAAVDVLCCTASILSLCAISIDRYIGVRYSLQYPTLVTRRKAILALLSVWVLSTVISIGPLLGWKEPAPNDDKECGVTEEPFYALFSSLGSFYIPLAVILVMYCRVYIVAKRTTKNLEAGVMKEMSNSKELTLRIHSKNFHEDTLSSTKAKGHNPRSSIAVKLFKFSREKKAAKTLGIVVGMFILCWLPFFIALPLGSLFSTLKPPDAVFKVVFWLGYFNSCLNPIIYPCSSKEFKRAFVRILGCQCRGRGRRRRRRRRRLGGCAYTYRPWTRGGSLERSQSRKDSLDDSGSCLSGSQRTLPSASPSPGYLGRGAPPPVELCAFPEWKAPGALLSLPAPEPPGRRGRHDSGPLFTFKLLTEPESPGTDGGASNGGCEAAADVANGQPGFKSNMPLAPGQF
# Sequence of nicotinic acetylcholine α1 (bungarotoxin) receptor (P07510 23-517): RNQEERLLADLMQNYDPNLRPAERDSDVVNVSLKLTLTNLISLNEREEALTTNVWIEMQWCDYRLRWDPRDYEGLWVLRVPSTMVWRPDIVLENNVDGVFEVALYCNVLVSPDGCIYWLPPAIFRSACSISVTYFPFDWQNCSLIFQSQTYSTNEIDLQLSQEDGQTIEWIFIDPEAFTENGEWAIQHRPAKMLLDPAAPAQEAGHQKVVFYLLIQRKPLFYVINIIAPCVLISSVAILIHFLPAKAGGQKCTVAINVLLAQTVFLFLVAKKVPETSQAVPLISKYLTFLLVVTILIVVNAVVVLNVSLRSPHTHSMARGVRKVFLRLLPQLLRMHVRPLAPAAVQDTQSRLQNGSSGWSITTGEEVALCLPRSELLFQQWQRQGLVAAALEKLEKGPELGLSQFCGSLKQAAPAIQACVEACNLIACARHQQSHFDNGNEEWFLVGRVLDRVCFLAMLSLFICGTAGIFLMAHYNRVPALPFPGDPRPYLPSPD
# Sequence of nicotinic acetylcholine α1 (bungarotoxin) receptor (P02708 21-457): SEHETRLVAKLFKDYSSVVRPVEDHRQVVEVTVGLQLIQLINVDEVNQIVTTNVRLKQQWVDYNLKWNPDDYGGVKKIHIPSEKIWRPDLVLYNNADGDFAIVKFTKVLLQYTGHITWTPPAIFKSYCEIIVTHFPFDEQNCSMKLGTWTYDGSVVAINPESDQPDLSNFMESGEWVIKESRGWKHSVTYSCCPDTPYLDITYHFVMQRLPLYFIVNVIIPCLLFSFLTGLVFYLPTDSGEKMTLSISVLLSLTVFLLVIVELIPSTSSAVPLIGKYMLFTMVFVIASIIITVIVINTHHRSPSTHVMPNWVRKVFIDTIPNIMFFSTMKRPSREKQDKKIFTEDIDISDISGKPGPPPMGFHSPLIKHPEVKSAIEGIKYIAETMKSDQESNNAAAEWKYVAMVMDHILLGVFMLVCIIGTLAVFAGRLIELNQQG
# Sequence of nicotinic acetylcholine α1 (bungarotoxin) receptor (Q07001 22-517): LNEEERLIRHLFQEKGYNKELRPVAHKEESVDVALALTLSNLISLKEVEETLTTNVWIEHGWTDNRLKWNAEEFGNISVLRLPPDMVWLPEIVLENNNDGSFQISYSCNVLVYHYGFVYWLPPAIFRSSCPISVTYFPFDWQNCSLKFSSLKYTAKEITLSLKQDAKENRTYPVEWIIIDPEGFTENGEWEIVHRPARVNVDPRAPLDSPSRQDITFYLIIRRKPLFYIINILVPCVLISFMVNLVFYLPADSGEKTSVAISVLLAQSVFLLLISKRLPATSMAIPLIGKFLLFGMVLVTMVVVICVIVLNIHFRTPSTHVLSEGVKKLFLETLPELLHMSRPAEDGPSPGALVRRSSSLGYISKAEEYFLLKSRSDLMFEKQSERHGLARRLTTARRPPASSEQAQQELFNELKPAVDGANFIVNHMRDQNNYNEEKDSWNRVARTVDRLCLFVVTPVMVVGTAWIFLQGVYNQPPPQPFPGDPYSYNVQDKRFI
# Sequence of nicotinic acetylcholine α1 (bungarotoxin) receptor (P11230 24-501, further chain): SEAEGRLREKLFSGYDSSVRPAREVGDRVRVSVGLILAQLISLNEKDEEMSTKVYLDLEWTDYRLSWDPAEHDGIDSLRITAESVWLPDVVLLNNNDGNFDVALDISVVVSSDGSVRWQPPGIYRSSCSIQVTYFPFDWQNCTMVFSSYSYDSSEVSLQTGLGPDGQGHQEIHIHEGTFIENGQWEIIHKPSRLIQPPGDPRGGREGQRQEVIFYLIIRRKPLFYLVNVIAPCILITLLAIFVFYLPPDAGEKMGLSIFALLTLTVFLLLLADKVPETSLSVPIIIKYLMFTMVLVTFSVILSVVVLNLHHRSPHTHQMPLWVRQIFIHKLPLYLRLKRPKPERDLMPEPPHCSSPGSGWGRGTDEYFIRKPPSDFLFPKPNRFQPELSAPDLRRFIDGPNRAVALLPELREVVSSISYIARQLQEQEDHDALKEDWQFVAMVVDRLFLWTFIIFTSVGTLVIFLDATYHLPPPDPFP
# Sequence of adrenergic α1A receptor (P35348 whole entry): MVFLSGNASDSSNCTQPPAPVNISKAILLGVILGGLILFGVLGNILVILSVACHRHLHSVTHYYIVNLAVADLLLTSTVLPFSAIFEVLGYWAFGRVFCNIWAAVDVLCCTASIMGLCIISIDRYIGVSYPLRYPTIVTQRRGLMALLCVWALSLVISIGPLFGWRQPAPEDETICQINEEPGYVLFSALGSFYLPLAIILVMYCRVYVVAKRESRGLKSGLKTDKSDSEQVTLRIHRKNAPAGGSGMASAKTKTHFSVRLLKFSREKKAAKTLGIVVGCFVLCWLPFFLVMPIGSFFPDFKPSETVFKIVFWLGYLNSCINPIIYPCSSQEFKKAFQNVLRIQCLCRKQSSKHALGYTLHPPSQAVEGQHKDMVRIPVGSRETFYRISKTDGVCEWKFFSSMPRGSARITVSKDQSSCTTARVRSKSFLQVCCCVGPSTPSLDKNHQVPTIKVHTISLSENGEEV
compound,measurement,setting,value
"C[C@@H](NC(=O)[C@@H](CCC(N)=O)NC(=O)[C@@H](C)NC(=O)[C@@H](CCCNC(=N)N)NC(=O)[C@@H](CCCNC(=N)N)NC(=O)[C@@H](CCCNC(=N)N)NC(=O)[C@@H](CCCNC(=N)N)NC(=O)[C@@H](CCCNC(=N)N)NC(=O)[C@@H](CCCNC(=N)N)NC(=O)[C@@H](CCCNC(=N)N)NC(=O)[C@@H](CCCNC(=N)N)NC(=O)[C@H](N)CCCNC(=N)N)C(=O)N[C@H](CCCNC(=N)N)C(=O)N[C@H](CCCNC(=N)N)C(=O)N[C@H](CCCCN)C(=O)N[C@H](CC(N)=O)C(=O)O [CP-2, reference compound] (H-[dR][dR][dR][dR][dR][dR][dR][dR][dR][dA][dQ][dA][dR][dR][dK][dN]-OH)",Tumor response,[1],without effect
same,Tumor response,[2],without effect
same,Tumor response,[3],without effect
same,"Side effects of treatment (weight, clinical signs of toxicity)",[4],no observable side effects
CC(=O)N[C@H](CCCNC(=N)N)C(=O)N[C@H](CCCNC(=N)N)C(=O)N[C@H](CCCNC(=N)N)C(=O)N[C@H](CCCNC(=N)N)C(=O)N[C@H](CCCNC(=N)N)C(=O)N[C@H](CCCNC(=N)N)C(=O)N[C@H](CCCNC(=N)N)C(=O)N[C@H](CCCNC(=N)N)C(=O)N[C@H](CCCNC(=N)N)C(=O)N[C@H](CS)C(=O)N[C@H](CCC(N)=O)C(=O)N[C@H](CS)C(=O)N[C@H](CCCNC(=N)N)C(=O)N[C@H](CCCNC(=N)N)C(=O)N[C@H](CCCCN)C(=O)N[C@H](CC(N)=O)C(N)=O [GO-203-2] (Ac-[dR][dR][dR][dR][dR][dR][dR][dR][dR][dC][dQ][dC][dR][dR][dK][dN]-NH2),IC50,adrenergic α1B receptor,3 to 8 µM
same,IC50,adrenergic α1A receptor,3 to 8 µM
same,50% inhibition (IC50) of proliferation,[5],5 to 11 µg/mL
same,IC50,[5],2 to 5 µM
same,Avg (viable cell number of Groups 1-3),H1975 Lung cancer cells,6.66
same,% inhibition,H1975 Lung cancer cells; vs untreated control,63.64%
same,"Group-1 (viable cell number, individual well)","H1975 Lung cancer cells; well having 10,000 cells",6.23
same,"Group-2 (viable cell number, individual well)","H1975 Lung cancer cells; well having 10,000 cells",6.34
same,"Group-3 (viable cell number, individual well)","H1975 Lung cancer cells; well having 10,000 cells",7.42
same,"Inhibition of MUC1-CD oligomerization, reduced vs oxidized form",His-tagged MUC1-CD [6],much more effective
same,Inhibition of MUC1-CD oligomerization,MUC1-CD,in an equivalent manner
same,Tumor response,[1],complete growth arrest and regression
same,Recurrence of tumors,[1]; [15],no evidence of recurrence
same,Inhibition of oligomerization of purified His-tagged MUC1-CD,His-tagged MUC1-CD [7],inhibited
same,Tumor response,[2],complete tumor growth arrest and regression
same,Recurrence of tumors,[2]; [15],no evidence of recurrence
same,IC50,muscarinic M2 receptor [8],3 to 8 µM
same,Tumor response,[3],complete tumor growth arrest and regression
same,Recurrence of tumors,[3]; [15],no evidence of recurrence
same,IC50,[9],3 to 8 µM
same,Avg (viable cell number of Groups 1-3),[10],8.06
same,% inhibition,[10]; vs untreated control,65.49%
same,"Group-1 (viable cell number, individual well)","[10]; well having 10,000 cells",7.14
same,"Group-2 (viable cell number, individual well)","[10]; well having 10,000 cells",9.38
same,"Group-3 (viable cell number, individual well)","[10]; well having 10,000 cells",7.67
same,"Side effects of treatment (weight, clinical signs of toxicity)",[4],no observable side effects
same,IC50,[11],3 to 8 µM
CP-3: control peptide containing AQA instead of CQC amino acid sequence in the binding domain (RRRRRRRRRCQCRRKN) [reference compound],% inhibition of radioligand binding,[12],79%
same,Tumor response,[13],ineffective
same,Tumor response,[13]; listed as CP3,no effect on tumor growth
same,% inhibition of radioligand binding,muscarinic M2 receptor [14],55%
